How the values were obtained:
LYN = target: T1, LYN (Homo sapiens, UniProt P07948); assay: Desktop Profiler kinase panel, LYN; format: biochemical; conditions: for inhibition at 1 µM: 1 micromolar concentration of the compound; for inhibition at 10 µM: 10 micromolar concentration of the compound, read-out: Percent Inhibition LYN
T1 construct: purchased Caliper Life Sciences
Description: (§1) The Aurora assays described here are performed on two Caliper Life Sciences systems: the LC3000 and the Desktop Profiler. These provide data on enzyme activity via measurement of the relative amounts of phosphorylated or unphosphorylated fluorescently labelled substrate peptide at the end of an enzymatic reaction. These different states of peptide are resolved by applying a potential difference across the sample. The presence of the charged phosphate group on the product (as opposed to the substrate) causes a different peptide mobility between the two peptides. This is visualized by excitation of the fluorescent label on the substrate and product peptides and represented as peaks within the analysis software.
(§2) The Desktop Profiler utilizes the same principle as the LC3000 for calculating percentage conversion of a substrate to product. Caliper Life Sciences provides proprietary flash frozen pre-made 384 well plates containing selected kinases. Each column in the 384 well plate contains a particular selected kinase. A second plate, the ‘substrate plate’ contains a mix of fluorescently labeled peptide substrate and ATP. These are arranged in columns so that transfer for substrate plate to enzyme plate provides the correct enzyme with the correct substrate/ATP concentration. Compounds are added to a thawed enzyme plate in the desired format, in single concentrations. Reactions are initiated by transfer of the substrate/ATP mix from the substrate plate. The enzyme plate is incubated for 90 mins at 25 C. The reaction is stopped by addition of 70 ul of Stop Buffer (100 mM HEPES pH 7.5, 0.015% Brij-35, 10 mM EDTA (Sigma, E7889)).
(§3) Reading of the plate in the Profiler is identical to the LC3000, and the ratio between substrate and product peaks provides the activity of the enzyme in that well. This is best represented by a plate heat map which colors each well by percent inhibition as compared to positive and negative controls (no inhibitors and no ATP respectively).
(§4) In the following Tables 3a-4-b, which show the results of the desktop profiler measurements, “+” means 50-70% inhibition, “++” means 70-90% inhibition, and “+++” means >90% inhibition. The enzymes tested for profiling were ABL, AKT1, AKT2, AurA, CHK1, CHK2, CK1d, Erk1, Erk2, FYN, GSK3b, INSR, LCK, LYN, MAPKAPK2, MET, MSK1, p38a, PKA, PKCz, PKD2, PRAK, RSK1 and SRC.

SRC = target: T2, SRC (Homo sapiens, UniProt P12931); assay: Desktop Profiler kinase panel, SRC; format: biochemical; conditions: for inhibition at 10 µM: 10 micromolar concentration of the compound, read-out: Percent Inhibition SRC
T2 construct: purchased Caliper Life Sciences
T2 sequence (P12931 whole entry, species assumed): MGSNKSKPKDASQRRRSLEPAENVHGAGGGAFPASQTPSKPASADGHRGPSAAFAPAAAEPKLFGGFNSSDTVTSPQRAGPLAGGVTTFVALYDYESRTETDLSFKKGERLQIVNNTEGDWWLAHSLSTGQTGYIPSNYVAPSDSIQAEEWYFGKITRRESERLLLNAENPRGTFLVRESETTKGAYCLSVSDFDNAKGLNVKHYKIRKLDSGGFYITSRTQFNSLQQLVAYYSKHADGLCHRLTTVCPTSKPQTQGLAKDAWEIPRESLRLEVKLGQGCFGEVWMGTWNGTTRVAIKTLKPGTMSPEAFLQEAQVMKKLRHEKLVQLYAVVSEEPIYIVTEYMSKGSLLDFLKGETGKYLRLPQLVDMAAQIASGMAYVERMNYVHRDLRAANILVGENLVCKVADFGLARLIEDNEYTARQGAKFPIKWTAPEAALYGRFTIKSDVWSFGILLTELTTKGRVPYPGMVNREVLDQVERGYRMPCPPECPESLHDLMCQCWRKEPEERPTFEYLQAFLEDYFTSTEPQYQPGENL
Description: as §1, §2, §3, §4

AurA = target: T3, AurA (Homo sapiens, UniProt O14965); assay: Desktop Profiler kinase panel, AurA; format: biochemical; conditions: for inhibition at 1 µM: 1 micromolar concentration of the compound; for inhibition at 10 µM: 10 micromolar concentration of the compound, read-out: Percent Inhibition AurA
T3 construct: purchased Caliper Life Sciences
T3 sequence (O14965 1-403): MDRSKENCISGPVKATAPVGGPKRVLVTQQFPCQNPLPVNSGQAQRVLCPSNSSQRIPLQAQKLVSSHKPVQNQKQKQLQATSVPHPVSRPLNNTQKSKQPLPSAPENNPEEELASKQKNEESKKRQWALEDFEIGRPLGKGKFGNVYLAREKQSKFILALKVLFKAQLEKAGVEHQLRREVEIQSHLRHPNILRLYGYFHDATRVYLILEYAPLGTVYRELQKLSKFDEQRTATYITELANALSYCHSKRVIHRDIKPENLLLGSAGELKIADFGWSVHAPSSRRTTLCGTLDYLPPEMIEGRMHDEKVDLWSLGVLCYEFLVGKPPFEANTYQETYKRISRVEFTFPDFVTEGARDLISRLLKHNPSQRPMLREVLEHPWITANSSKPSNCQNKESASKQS
Description: as §1, §2, §3, §4

PKA = target: T4, PKA (Homo sapiens, UniProt P17612); assay: Desktop Profiler kinase panel, PKA; format: biochemical; conditions: 10 micromolar concentration of the compound; read-out: Percent Inhibition PKA
T4 construct: purchased Caliper Life Sciences
Description: as §1, §2, §3, §4

LCK = target: T5, LCK (Homo sapiens, UniProt P06239); assay: Desktop Profiler kinase panel, LCK; format: biochemical; conditions: for inhibition at 10 µM: 10 micromolar concentration of the compound, read-out: Percent Inhibition LCK
T5 construct: purchased Caliper Life Sciences
T5 sequence (P06239 whole entry, species assumed): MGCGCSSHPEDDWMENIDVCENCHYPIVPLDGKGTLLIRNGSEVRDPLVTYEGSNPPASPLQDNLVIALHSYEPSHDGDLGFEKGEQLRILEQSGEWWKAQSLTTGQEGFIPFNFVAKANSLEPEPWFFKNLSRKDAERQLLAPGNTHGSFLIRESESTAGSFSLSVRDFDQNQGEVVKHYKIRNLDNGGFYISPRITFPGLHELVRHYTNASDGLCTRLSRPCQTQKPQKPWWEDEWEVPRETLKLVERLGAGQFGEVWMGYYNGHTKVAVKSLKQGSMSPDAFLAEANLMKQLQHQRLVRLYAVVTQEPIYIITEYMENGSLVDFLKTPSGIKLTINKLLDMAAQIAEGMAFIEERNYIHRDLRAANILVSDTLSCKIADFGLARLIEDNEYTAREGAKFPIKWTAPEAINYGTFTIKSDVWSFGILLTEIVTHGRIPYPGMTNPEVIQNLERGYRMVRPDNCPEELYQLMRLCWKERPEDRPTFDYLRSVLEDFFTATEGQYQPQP
Description: as §1, §2, §3, §4

CHK2 = target: T6, CHK2 (Homo sapiens, UniProt O96017); assay: Desktop Profiler kinase panel, CHK2; format: biochemical; conditions: for inhibition at 1 µM: 1 micromolar concentration of the compound; for inhibition at 10 µM: 10 micromolar concentration of the compound, read-out: Percent Inhibition CHK2
T6 construct: purchased Caliper Life Sciences
T6 sequence (O96017 whole entry, species assumed): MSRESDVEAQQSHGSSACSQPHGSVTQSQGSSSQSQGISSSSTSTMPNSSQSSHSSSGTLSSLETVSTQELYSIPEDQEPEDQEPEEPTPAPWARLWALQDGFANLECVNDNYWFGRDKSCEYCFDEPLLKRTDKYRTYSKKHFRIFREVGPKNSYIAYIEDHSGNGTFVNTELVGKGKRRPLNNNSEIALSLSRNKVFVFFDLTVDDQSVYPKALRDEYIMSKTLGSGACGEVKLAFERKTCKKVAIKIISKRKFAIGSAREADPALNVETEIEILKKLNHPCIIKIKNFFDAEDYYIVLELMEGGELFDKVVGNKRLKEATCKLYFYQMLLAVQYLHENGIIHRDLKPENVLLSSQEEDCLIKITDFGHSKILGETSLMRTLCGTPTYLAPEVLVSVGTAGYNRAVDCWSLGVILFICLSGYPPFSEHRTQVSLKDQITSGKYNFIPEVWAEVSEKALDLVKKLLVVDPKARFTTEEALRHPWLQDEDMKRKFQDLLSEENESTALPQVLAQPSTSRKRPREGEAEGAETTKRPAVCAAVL
Description: as §1, §2, §3, §4

FYN = target: T7, FYN (Homo sapiens, UniProt P06241); assay: Desktop Profiler kinase panel, FYN; format: biochemical; conditions: for inhibition at 10 µM: 10 micromolar concentration of the compound, read-out: Percent Inhibition FYN
T7 construct: purchased Caliper Life Sciences
T7 sequence (P06241 whole entry, species assumed): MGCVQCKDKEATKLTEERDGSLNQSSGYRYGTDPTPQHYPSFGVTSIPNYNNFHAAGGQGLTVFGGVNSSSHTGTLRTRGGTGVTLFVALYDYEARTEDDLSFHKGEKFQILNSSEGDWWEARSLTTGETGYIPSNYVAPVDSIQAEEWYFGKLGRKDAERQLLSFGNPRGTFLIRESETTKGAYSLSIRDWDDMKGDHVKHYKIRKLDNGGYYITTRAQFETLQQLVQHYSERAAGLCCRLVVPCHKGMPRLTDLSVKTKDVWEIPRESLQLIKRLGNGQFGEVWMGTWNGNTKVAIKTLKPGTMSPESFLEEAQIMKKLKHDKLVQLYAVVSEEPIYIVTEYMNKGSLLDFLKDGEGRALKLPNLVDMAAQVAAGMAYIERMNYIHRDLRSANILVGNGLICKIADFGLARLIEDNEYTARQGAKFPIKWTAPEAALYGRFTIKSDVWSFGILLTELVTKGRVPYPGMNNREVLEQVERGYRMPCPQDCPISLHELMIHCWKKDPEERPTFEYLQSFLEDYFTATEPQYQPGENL
Description: as §1, §2, §3, §4

ABL = target: T8, ABL (Homo sapiens, UniProt P00519); assay: Desktop Profiler kinase panel, ABL; format: biochemical; conditions: for inhibition at 10 µM: 10 micromolar concentration of the compound, read-out: Percent Inhibition ABL
T8 construct: purchased Caliper Life Sciences
T8 sequence (P00519 whole entry, species assumed): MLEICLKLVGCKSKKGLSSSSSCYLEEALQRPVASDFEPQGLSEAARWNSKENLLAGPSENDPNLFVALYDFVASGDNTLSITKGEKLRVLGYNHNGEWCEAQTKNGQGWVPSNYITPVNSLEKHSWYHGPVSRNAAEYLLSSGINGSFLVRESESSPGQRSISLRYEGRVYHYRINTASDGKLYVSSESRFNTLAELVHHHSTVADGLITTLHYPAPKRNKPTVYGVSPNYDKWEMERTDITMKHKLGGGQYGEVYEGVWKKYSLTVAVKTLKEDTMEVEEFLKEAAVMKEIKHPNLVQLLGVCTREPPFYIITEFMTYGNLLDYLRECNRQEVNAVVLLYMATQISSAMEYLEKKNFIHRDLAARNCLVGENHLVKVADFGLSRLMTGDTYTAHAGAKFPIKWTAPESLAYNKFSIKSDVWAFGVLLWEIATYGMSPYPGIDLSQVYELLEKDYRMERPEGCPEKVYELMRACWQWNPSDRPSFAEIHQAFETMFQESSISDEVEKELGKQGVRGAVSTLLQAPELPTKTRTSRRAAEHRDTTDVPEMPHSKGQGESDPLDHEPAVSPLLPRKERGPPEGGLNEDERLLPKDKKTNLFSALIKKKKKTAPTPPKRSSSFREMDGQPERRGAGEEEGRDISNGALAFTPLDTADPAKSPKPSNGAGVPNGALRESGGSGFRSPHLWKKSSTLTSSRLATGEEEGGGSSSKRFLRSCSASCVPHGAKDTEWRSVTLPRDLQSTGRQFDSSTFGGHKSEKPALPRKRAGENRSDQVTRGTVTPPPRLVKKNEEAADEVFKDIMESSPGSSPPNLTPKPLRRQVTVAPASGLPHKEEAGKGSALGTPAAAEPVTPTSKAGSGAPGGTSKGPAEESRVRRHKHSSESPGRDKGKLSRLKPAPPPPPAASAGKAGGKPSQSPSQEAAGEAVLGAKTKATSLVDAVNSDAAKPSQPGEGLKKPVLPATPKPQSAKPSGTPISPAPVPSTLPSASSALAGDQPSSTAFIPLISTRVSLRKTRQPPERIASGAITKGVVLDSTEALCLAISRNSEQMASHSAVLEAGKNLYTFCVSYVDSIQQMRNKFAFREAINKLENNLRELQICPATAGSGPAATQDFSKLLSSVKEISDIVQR
Description: as §1, §2, §3, §4

CK1d = target: T9, CK1d (Homo sapiens, UniProt P48730); assay: Desktop Profiler kinase panel, CK1d; format: biochemical; conditions: 10 micromolar concentration of the compound; read-out: Percent Inhibition CK1d
T9 construct: purchased Caliper Life Sciences
T9 sequence (P48730 whole entry): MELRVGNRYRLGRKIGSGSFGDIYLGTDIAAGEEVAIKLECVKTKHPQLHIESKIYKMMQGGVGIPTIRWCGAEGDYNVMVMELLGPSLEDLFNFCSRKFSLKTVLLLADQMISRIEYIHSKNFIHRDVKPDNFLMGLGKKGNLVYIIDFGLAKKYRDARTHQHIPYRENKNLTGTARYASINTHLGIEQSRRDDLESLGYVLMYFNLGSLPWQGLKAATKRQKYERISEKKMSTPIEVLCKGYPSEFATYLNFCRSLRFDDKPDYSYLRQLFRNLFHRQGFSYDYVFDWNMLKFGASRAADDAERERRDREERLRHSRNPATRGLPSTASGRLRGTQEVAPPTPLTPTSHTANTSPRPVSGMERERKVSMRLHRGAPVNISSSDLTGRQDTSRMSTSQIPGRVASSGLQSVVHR
Description: as §1, §2, §3, §4

GST-Aurora A = target: T10, GST-Aurora A (Homo sapiens, UniProt O14965); assay: Aurora A IC50, Caliper LC3000 mobility shift assay; format: biochemical; conditions: LC3000 method; 15 uM ATP (the KM value); read-out: Aurora Kinase A Activity (IC50)
T10 construct: N-terminal GST fusion with full length Aurora A (1-403 amino acids); purchased Carna Biosciences 05-101
T10 sequence (O14965 1-403): T3 sequence (O14965 1-403)
How it was run: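 Readout: percent conversion of FITC-LRRASLG (1 uM) to phosphopeptide, resolved electrophoretically on a Caliper LC3000, fitted against inhibitor concentration for IC50. Reaction: N-terminal GST full-length Aurora A, ATP at its KM (15 uM), pH 7.5 HEPES with MgCl2/DTT, 25 C for 90 min.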

[1] = test system: tumor cells of various origins / normal human cells; conditions: in vitro; cited from earlier work
human tumor xenograft = human tumor xenograft model; several intermittent dosing schedules; cited from earlier work
[2] = test system: leukemia, colon and pancreatic tumors; conditions: variety of in vivo xenograft models; well-tolerated doses; cited from earlier work
[3] = 1 micromolar concentration of the compound

T1 sequence (P07948 whole entry, species assumed): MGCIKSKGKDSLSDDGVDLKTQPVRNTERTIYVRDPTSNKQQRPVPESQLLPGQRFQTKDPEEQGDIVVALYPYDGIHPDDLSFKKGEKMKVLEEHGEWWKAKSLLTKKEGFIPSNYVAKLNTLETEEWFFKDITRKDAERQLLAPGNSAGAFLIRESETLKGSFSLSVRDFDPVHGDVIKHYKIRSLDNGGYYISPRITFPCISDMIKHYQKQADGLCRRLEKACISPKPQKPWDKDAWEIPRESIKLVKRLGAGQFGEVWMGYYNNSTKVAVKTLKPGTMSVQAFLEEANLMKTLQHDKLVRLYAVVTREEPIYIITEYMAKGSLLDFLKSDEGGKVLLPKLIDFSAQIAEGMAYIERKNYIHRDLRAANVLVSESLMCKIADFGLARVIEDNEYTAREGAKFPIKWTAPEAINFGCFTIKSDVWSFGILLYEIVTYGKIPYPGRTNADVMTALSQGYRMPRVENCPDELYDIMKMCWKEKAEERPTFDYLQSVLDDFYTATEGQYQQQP

SMILES	inhibition at 1 µM (LYN)	inhibition at 10 µM (LYN)	inhibition at 1 µM (SRC; [3])	inhibition at 10 µM (SRC)	inhibition at 1 µM (AurA)	inhibition at 10 µM (AurA)	inhibition at 10 µM (PKA)	inhibition at 1 µM (LCK; [3])	inhibition at 10 µM (LCK)	inhibition at 1 µM (CHK2)	inhibition at 10 µM (CHK2)	inhibition at 1 µM (FYN; [3])	inhibition at 1 µM (ABL; [3])	inhibition at 10 µM (ABL)	inhibition at 10 µM (CK1d)	IC50 (GST-Aurora A)	inhibition at 10 µM (FYN)	less effective at inhibiting normal human cell growth than tumor cell proliferation [1]	antitumor activity (human tumor xenograft)	inhibition of tumor growth [2]
COc1ccc(Nc2ccnc3[nH]c(=O)c4ccccc4c23)cc1 [Example 113, 1-(4-Methoxy-phenylamino)-5H-benzo[c][1,8]naphthyridin-6-one]	70 to 90%	> 90%	70 to 90%	70 to 90%	50 to 70%	70 to 90%	50 to 70%	50 to 70%	70 to 90%	50 to 70%	70 to 90%	70 to 90%	50 to 70%	70 to 90%	–	–	–	–	–	–
O=C(Nc1ccc(Nc2ccnc3[nH]c(=O)c4ccccc4c23)cc1)c1ccccc1 [Example 120, N-[4-(6-Oxo-5,6-dihydro-benzo[c][1,8]naphthyridin-1-ylamino)-phenyl]-benzamide]	50 to 70%	70 to 90%	–	50 to 70%	> 90%	> 90%	–	–	–	> 90%	> 90%	–	–	–	50 to 70%	< 11 nM	50 to 70%	–	–	–
Clc1nc2nccc(Nc3ccccc3)c2c2ccccc12 [Example 139, (6-Chloro-benzo[c][1,8]naphthyridin-1-yl)-phenyl-amine]	–	> 90%	–	> 90%	–	70 to 90%	–	–	70 to 90%	–	50 to 70%	–	–	> 90%	–	> 100 nM	> 90%	–	–	–
Nc1nc(Nc2ccc(S(N)(=O)=O)cc2)nn1C(=O)c1c(F)cccc1F [JNJ-7706621]	–	–	–	–	–	–	–	–	–	–	–	–	–	–	–	–	–	about 10 fold	significant antitumor activity	–
Cc1cc(Nc2cc(N3CCN(C)CC3)nc(Sc3ccc(NC(=O)C4CC4)cc3)n2)n[nH]1 [VX-680]	–	–	–	–	–	–	–	–	–	–	–	–	–	–	–	–	–	–	–	profound inhibition of tumor growth
